Our source for the IC50 values is ChEMBL document CHEMBL1201861, “Genomics of Drug Sensitity in Cancer screening data, Wellcome Trust Sanger Institute”.

The structures appear in SMILES notation. Some results are limits rather than exact numbers.

Common to all, as to experiment: cells
Holding throughout (type): functional, cell-based, Homo sapiens

Experiment [1] relates to LC4-1. To be noted: Homo sapiens, LC4-1.
Description: SANGER: Inhibition of human LC4-1 cell growth in a cell viability assay.
For experiment [2], the system named is MHH-CALL-2. To be noted: Homo sapiens, MHH-CALL-2.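 Further: growth inhibition of the cell line, read out in a cell viability assay.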
Description: SANGER: Inhibition of human MHH-CALL-2 cell growth in a cell viability assay.
The test system of experiment [3] is NB14. To be noted: Homo sapiens, NB14.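 Further: growth inhibition of NB14 cells measured with a cell viability assay.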
Description: SANGER: Inhibition of human NB14 cell growth in a cell viability assay.
For experiment [4], the system named is NB7. To be noted: Homo sapiens, NB7.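 Further: growth inhibition of NB7 cells, read out with a cell viability assay.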
Description: SANGER: Inhibition of human NB7 cell growth in a cell viability assay.
The test system of experiment [5] is NCI-H1436. To be noted: Homo sapiens, NCI-H1436.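 Further: growth suppression of human NCI-H1436 cells, determined with a cell viability readout.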
Description: SANGER: Inhibition of human NCI-H1436 cell growth in a cell viability assay.
The test system of experiment [6] is NCI-H1694. The conditions noted are these: Homo sapiens, NCI-H1694.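 Further: cell viability assay measuring inhibition of growth in human NCI-H1694 cells.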
Description: SANGER: Inhibition of human NCI-H1694 cell growth in a cell viability assay.
Experiment [7] deals with NCI-H748. The conditions noted are these: Homo sapiens, NCI-H748.
Description: SANGER: Inhibition of human NCI-H748 cell growth in a cell viability assay.
For experiment [8], the system named is Raji. To be noted: Homo sapiens, Raji.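 Further: cell viability assay measuring inhibition of Raji cell growth.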
Description: SANGER: Inhibition of human Raji cell growth in a cell viability assay.
Experiment [9] concerns SK-MM-2. To be noted: Homo sapiens, SK-MM-2.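 Further: growth inhibition of human SK-MM-2 cells, read out with a cell viability assay.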
Description: SANGER: Inhibition of human SK-MM-2 cell growth in a cell viability assay.
In experiment [10] the test system is BC-3. The conditions noted are these: Homo sapiens, BC-3.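 Further: cell viability assay measuring growth inhibition of human BC-3 cells.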
Description: SANGER: Inhibition of human BC-3 cell growth in a cell viability assay.
In experiment [11] the test system is CMK. The conditions noted are these: Homo sapiens, CMK.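 Further: growth inhibition of CMK cells, read out as cell viability.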
Description: SANGER: Inhibition of human CMK cell growth in a cell viability assay.
For experiment [12], the system named is K052. The conditions noted are these: Homo sapiens, K052.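 Further: Read-out from a cell viability assay, IC50 reflecting suppression of K052 cell growth.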
Description: SANGER: Inhibition of human K052 cell growth in a cell viability assay.

For `CC[C@H](CO)Nc1nc(NCc2ccccc2)c2ncn(C(C)C)c2n1` [SELICICLIB], the IC50 in [1], in experiment [2], in experiment [3], in experiment [4], in [5] and in experiment [6] was above 16 µM in each case. Also, the IC50 – broadly, the concentration at which inhibition is half-maximal – is above 16 µM in [7]; 13.8 µM in experiment [8]; above 16 µM in [9]; above 16 µM in experiment [10]; above 16 µM in experiment [11].
For the compound `COc1cc2ncn(-c3cc(OCc4ccccc4C(F)(F)F)c(C(N)=O)s3)c2cc1OC` [GW843682X], the IC50 in experiment [12] was 0.0354 µM; in experiment [1], 0.0545 µM; in experiment [2], above 0.256 µM; in [3], above 0.256 µM; in experiment [4] it was above 0.256 µM; in [5] it was above 0.256 µM. The IC50 in experiment [6] is 0.042 µM; in [7] it was above 0.256 µM; in experiment [8], above 0.256 µM; in experiment [9] it was above 0.256 µM; in [10], above 0.256 µM; in [11], 0.036 µM.
Consider `C#Cc1cccc(Nc2ncnc3cc(OCCOC)c(OCCOC)cc23)c1` [ERLOTINIB], for which the concentration for half-maximal inhibition (IC50) in experiment [1], in experiment [2], in experiment [3], in experiment [4], in [6] and in experiment [7] was above 2 µM each time. The IC50 in [8], in experiment [9], in [10] and in experiment [11] was above 2 µM in each case.
Turning to `COc1cc2ncn(-c3cc(OCc4ccccc4S(C)(=O)=O)c(C#N)s3)c2cc1OC` [GSK-319347A], the IC50 in experiment [12], in experiment [1], in [2], in experiment [3], in [4] and in [5] was above 5 µM in each case. In addition, the IC50 in experiment [6], in experiment [7], in [8], in experiment [9], in experiment [10] and in experiment [11] was above 5 µM each time.
`N[C@@H](CSC(c1ccccc1)(c1ccccc1)c1ccccc1)C(=O)O` [S-TRITYL-L-CYSTEINE]: the IC50 was 0.971 µM in experiment [12]; 2.02 µM in experiment [1]; above 5.12 µM in experiment [2]; above 5.12 µM in [3]; above 5.12 µM in experiment [4]; 0.889 µM in experiment [5]. Moreover, the IC50 in experiment [6] is above 5.12 µM; in experiment [7], above 5.12 µM; in experiment [8], 3.6 µM; in experiment [9], above 5.12 µM; in experiment [10], 2.19 µM; in [11], 1.56 µM.
On to `Cc1ccc(-c2c(C(=O)CCl)n(CCCO)c3ncnc(N)c23)cc1`, for which the IC50 in experiment [12], in [1], in [2], in [3], in experiment [4] and in [5] was above 4 µM throughout. Besides, the IC50 in experiment [6], in experiment [7], in experiment [8], in [9], in [10] and in experiment [11] was above 4 µM in each case.
On to `COc1cc(N2CCN(C)CC2)ccc1Nc1ncc2c(n1)N(C)c1ccccc1C(=O)N2C`, for which the IC50 in experiment [12] was 6.24 µM; in experiment [1], 4.02 µM; in experiment [2], above 8 µM; in [3], above 8 µM; in experiment [4] it was above 8 µM; in experiment [5], above 8 µM. In addition, the IC50 is above 8 µM in experiment [6]; above 8 µM in experiment [7]; above 8 µM in [8]; 2.59 µM in [9]; above 8 µM in experiment [10]; 3.88 µM in experiment [11].
In the case of `CC(=O)O[C@H]1C(=O)[C@@]2(C)[C@H]([C@H](OC(=O)c3ccccc3)[C@]3(O)C[C@H](OC(=O)[C@H](O)[C@@H](NC(=O)c4ccccc4)c4ccccc4)C(C)=C1C3(C)C)[C@]1(OC(C)=O)CO[C@@H]1C[C@@H]2O` [PACLITAXEL], the IC50 is 0.0325 µM in experiment [12]; 0.0435 µM in experiment [1]; 0.0356 µM in experiment [2]; above 0.102 µM in [3]; above 0.102 µM in experiment [4]; 0.0123 µM in experiment [5]. Moreover, the concentration for half-maximal inhibition (IC50) in experiment [6] was above 0.102 µM; in [7], above 0.102 µM; in experiment [8], above 0.102 µM; in [9], above 0.102 µM; in [10], 0.0234 µM; in experiment [11] it was 0.0273 µM.
`COc1cc(-c2nn([C@H]3CC[C@H](N4CCN(C(C)=O)CC4)CC3)c3ncnc(N)c23)ccc1NC(=O)c1cc2ccccc2n1C`: the IC50 in [12] is above 5.12 µM; in [1], above 5.12 µM; in [2], above 5.12 µM; in experiment [3], above 5.12 µM; in experiment [4], above 5.12 µM; in [5], 3.19 µM. The IC50 in [6], in experiment [7], in experiment [8], in experiment [9], in [10] and in experiment [11] was above 5.12 µM in each case.
Regarding `CCN(CC)CCNC(=O)c1c(C)[nH]c(/C=C2\C(=O)Nc3ccc(F)cc32)c1C` [SUNITINIB], the IC50 is 2.4 µM in experiment [12]; 4.38 µM in experiment [1]; 5.77 µM in [2]; above 8 µM in experiment [3]; above 8 µM in experiment [4]; above 8 µM in experiment [5]. The half-inhibitory concentration (IC50) is above 8 µM in [6]; above 8 µM in experiment [7]; above 8 µM in experiment [8]; 5.48 µM in experiment [9]; above 8 µM in [10]; 1.96 µM in [11].
Turning to `OCCCNc1cc(-c2ccnc(Nc3cccc(Cl)c3)n2)ccn1`, the 50% inhibitory concentration (IC50) in experiment [12] was above 0.256 µM; in experiment [1], 0.0713 µM; in experiment [2], 0.0855 µM; in experiment [3] it was above 0.256 µM; in experiment [4], above 0.256 µM; in experiment [5], 0.251 µM. The IC50 was above 0.256 µM in experiment [6]; 0.0764 µM in experiment [7]; 0.0421 µM in [8]; 0.124 µM in experiment [9]; 0.0766 µM in experiment [10]; above 0.256 µM in experiment [11].
